Measurements: the NIST ThermoML archive (doi:10.1016/j.jct.2011.08.016)
Numbers after ± are expanded uncertainties.

Experiment: xn = mol fraction of the nth substance listed
Details: Liquid, Vibrating tube method

CCCCCCCCCC [decane] + CCCCCCCC
Details | mass density [kg/m3]
313.19 K, 10000 kPa, x2 = 0.5314 | 710.43 ± 0.46
313.19 K, 10000 kPa, x2 = 0.7736 | 703.28 ± 0.46
313.19 K, 10990 kPa, x2 = 0.5314 | 711.26 ± 0.46
313.19 K, 10990 kPa, x2 = 0.7736 | 704.16 ± 0.47
313.19 K, 12000 kPa, x2 = 0.5314 | 712.06 ± 0.47
313.19 K, 12000 kPa, x2 = 0.7736 | 705 ± 0.47
313.19 K, 13000 kPa, x2 = 0.5314 | 712.86 ± 0.47
313.19 K, 13000 kPa, x2 = 0.7736 | 705.81 ± 0.48
313.19 K, 14000 kPa, x2 = 0.5314 | 713.65 ± 0.48
313.19 K, 14000 kPa, x2 = 0.7736 | 706.63 ± 0.48
313.19 K, 15000 kPa, x2 = 0.5314 | 714.44 ± 0.48
313.19 K, 15000 kPa, x2 = 0.7736 | 707.47 ± 0.49
313.19 K, 16000 kPa, x2 = 0.5314 | 715.21 ± 0.49
313.19 K, 16000 kPa, x2 = 0.7736 | 708.28 ± 0.5
313.19 K, 17000 kPa, x2 = 0.5314 | 715.97 ± 0.5
313.19 K, 17000 kPa, x2 = 0.7736 | 709.1 ± 0.5
313.19 K, 18000 kPa, x2 = 0.5314 | 716.73 ± 0.5
313.19 K, 18000 kPa, x2 = 0.7736 | 709.83 ± 0.51
313.19 K, 19000 kPa, x2 = 0.5314 | 717.47 ± 0.51
313.19 K, 19000 kPa, x2 = 0.7736 | 710.61 ± 0.51
313.19 K, 20000 kPa, x2 = 0.5314 | 718.2 ± 0.51
313.19 K, 20000 kPa, x2 = 0.7736 | 711.34 ± 0.52
313.19 K, 21000 kPa, x2 = 0.5314 | 718.89 ± 0.52
313.19 K, 21000 kPa, x2 = 0.7736 | 712.07 ± 0.53
313.19 K, 22000 kPa, x2 = 0.5314 | 719.56 ± 0.53
313.19 K, 22000 kPa, x2 = 0.7736 | 712.79 ± 0.53
313.19 K, 23000 kPa, x2 = 0.5314 | 720.23 ± 0.53
313.19 K, 23000 kPa, x2 = 0.7736 | 713.47 ± 0.54
313.19 K, 24000 kPa, x2 = 0.5314 | 720.88 ± 0.54
313.19 K, 24000 kPa, x2 = 0.7736 | 714.14 ± 0.55
313.19 K, 25000 kPa, x2 = 0.5314 | 721.52 ± 0.54
313.19 K, 25000 kPa, x2 = 0.7736 | 714.77 ± 0.55
323.13 K, 1000 kPa, x2 = 0.2801 | 701.5 ± 0.41
323.13 K, 2000 kPa, x2 = 0.2801 | 702.42 ± 0.42
323.13 K, 3000 kPa, x2 = 0.2801 | 703.33 ± 0.42
323.13 K, 4000 kPa, x2 = 0.2801 | 704.26 ± 0.43
323.13 K, 5000 kPa, x2 = 0.2801 | 705.16 ± 0.43
323.13 K, 6000 kPa, x2 = 0.2801 | 706.06 ± 0.43
323.13 K, 7000 kPa, x2 = 0.2801 | 706.95 ± 0.44
323.13 K, 8000 kPa, x2 = 0.2801 | 707.83 ± 0.44
323.13 K, 9000 kPa, x2 = 0.2801 | 708.7 ± 0.45
323.13 K, 10000 kPa, x2 = 0.2801 | 709.57 ± 0.45
323.13 K, 10990 kPa, x2 = 0.2801 | 710.5 ± 0.46
323.13 K, 12000 kPa, x2 = 0.2801 | 711.29 ± 0.47
323.13 K, 13000 kPa, x2 = 0.2801 | 712.12 ± 0.47
323.13 K, 14000 kPa, x2 = 0.2801 | 712.97 ± 0.48
323.13 K, 15000 kPa, x2 = 0.2801 | 713.78 ± 0.48
323.13 K, 16000 kPa, x2 = 0.2801 | 714.58 ± 0.49
323.13 K, 17000 kPa, x2 = 0.2801 | 715.38 ± 0.49
323.13 K, 18000 kPa, x2 = 0.2801 | 716.14 ± 0.5
323.13 K, 19000 kPa, x2 = 0.2801 | 716.9 ± 0.51
323.13 K, 20000 kPa, x2 = 0.2801 | 717.66 ± 0.51
323.13 K, 21000 kPa, x2 = 0.2801 | 718.38 ± 0.52
323.13 K, 22000 kPa, x2 = 0.2801 | 719.06 ± 0.52
323.13 K, 23000 kPa, x2 = 0.2801 | 719.71 ± 0.53
323.13 K, 24000 kPa, x2 = 0.2801 | 720.38 ± 0.54
323.13 K, 25000 kPa, x2 = 0.2801 | 721 ± 0.54
323.15 K, 1000 kPa, x2 = 0.5314 | 694.85 ± 0.42
323.15 K, 1000 kPa, x2 = 0.7736 | 687.38 ± 0.42
323.15 K, 1000 kPa, x2 = 0.9623 | 680.8 ± 0.42
323.15 K, 2000 kPa, x2 = 0.5314 | 695.78 ± 0.42
323.15 K, 2000 kPa, x2 = 0.7736 | 688.41 ± 0.42
323.15 K, 2000 kPa, x2 = 0.9623 | 681.8 ± 0.43
323.15 K, 3000 kPa, x2 = 0.5314 | 696.73 ± 0.42
323.15 K, 3000 kPa, x2 = 0.7736 | 689.33 ± 0.43
323.15 K, 3000 kPa, x2 = 0.9623 | 682.74 ± 0.43
323.15 K, 4000 kPa, x2 = 0.5314 | 697.62 ± 0.43
323.15 K, 4000 kPa, x2 = 0.7736 | 690.27 ± 0.43
323.15 K, 4000 kPa, x2 = 0.9623 | 683.68 ± 0.43
323.15 K, 5000 kPa, x2 = 0.5314 | 698.58 ± 0.43
323.15 K, 5000 kPa, x2 = 0.7736 | 691.21 ± 0.44
323.15 K, 5000 kPa, x2 = 0.9623 | 684.65 ± 0.44
323.15 K, 6000 kPa, x2 = 0.5314 | 699.53 ± 0.44
323.15 K, 6000 kPa, x2 = 0.7736 | 692.18 ± 0.44
323.15 K, 6000 kPa, x2 = 0.9623 | 685.6 ± 0.45
323.15 K, 7000 kPa, x2 = 0.5314 | 700.45 ± 0.44
323.15 K, 7000 kPa, x2 = 0.7736 | 693.12 ± 0.45
323.15 K, 7000 kPa, x2 = 0.9623 | 686.57 ± 0.45
323.15 K, 8000 kPa, x2 = 0.5314 | 701.36 ± 0.45
323.15 K, 8000 kPa, x2 = 0.7736 | 694.08 ± 0.45
323.15 K, 8000 kPa, x2 = 0.9623 | 687.54 ± 0.46
323.15 K, 9000 kPa, x2 = 0.5314 | 702.24 ± 0.45
323.15 K, 9000 kPa, x2 = 0.7736 | 694.99 ± 0.46
323.15 K, 9000 kPa, x2 = 0.9623 | 688.5 ± 0.46
323.15 K, 10000 kPa, x2 = 0.5314 | 703.12 ± 0.46
323.15 K, 10000 kPa, x2 = 0.7736 | 695.89 ± 0.46
323.15 K, 10000 kPa, x2 = 0.9623 | 689.46 ± 0.47
323.15 K, 10990 kPa, x2 = 0.5314 | 703.99 ± 0.46
323.15 K, 10990 kPa, x2 = 0.7736 | 696.8 ± 0.47
323.15 K, 10990 kPa, x2 = 0.9623 | 690.4 ± 0.47
323.15 K, 12000 kPa, x2 = 0.5314 | 704.86 ± 0.47
323.15 K, 12000 kPa, x2 = 0.7736 | 697.73 ± 0.48
323.15 K, 12000 kPa, x2 = 0.9623 | 691.34 ± 0.48
323.15 K, 13000 kPa, x2 = 0.5314 | 705.72 ± 0.48
